Where two headings read alike, the source gives them in different places.

Assay [1] has as its system Phosphorylation of ERK1/2 in MIA PaCa-2 cells. In words: Phospho-ERK1/2 MSD assay in MIA PaCa-2 cells. The note with it: read-out: p-ERK IC50 (2 h, MiaPaCa-2; μM), 2 h compound treatment, MIA PaCa-2 cells, EGF stimulated. The assay is classed as cell-based. An outline of the steps:
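Phospho-ERK1/2 measured by MSD electrochemiluminescence kit in RIPA lysates of MIA PaCa-2 cells. Cells were treated with compound titrations for 2 or 4 h at 37 °C, 5% CO2, followed by a 10 min pulse of 10 ng/mL EGF.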

Assay [2] relates to Phosphorylation of ERK1/2 in A549 cells. Nature of the assay: Phospho-ERK1/2 MSD assay in A549 cells. Particulars: read-out: p-ERK IC50 (2 h, A549; μM), 2 h compound treatment, A549 cells, EGF stimulated. The assay is classed as cell-based. An outline of the steps: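 Phospho-ERK1/2 was quantified by MSD immunoassay in RIPA lysates of MIA PaCa-2 or A549 cells. Before lysis, cells received 10 ng/mL EGF for 10 min after 2 or 4 h exposure at 37° C. to a compound concentration series.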

The target in assay [3] is GDP-bound KRAS protein (aa 1-169), containing both G12C and C118A amino acid substitutions (Homo sapiens (Human), UniProt P01116, C118A/G12C). In words: Coupled nucleotide exchange assay (SOS-mediated nucleotide exchange, AlphaScreen). The note with it: 5 min compound pre-incubation; for IC50: read-out: Coupled exchange IC50 (5 min; μM). The assay is classed as biochemical.
Sequence of GDP-bound KRAS protein (aa 1-169), containing both G12C and C118A amino acid substitutions (P01116 other isoform, or with tags, fused parts or gaps G12C/C118A): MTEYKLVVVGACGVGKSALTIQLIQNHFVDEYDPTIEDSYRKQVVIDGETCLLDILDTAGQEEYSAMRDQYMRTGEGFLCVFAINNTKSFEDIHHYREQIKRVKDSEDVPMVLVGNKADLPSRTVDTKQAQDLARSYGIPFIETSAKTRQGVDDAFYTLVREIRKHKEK

Consider `C=CC(=O)N1C[C@H](C)N(c2nc(=O)n(-c3c(C(C)C)cncc3C(C)C)c3nc(-c4c(O)cccc4F)c(F)cc23)C[C@H]1C` [Example 101-1, 1-(3,5-Diisopropyl-4-pyridyl)-4-[(2S,5R)-2,5-dimethyl-4-prop-2-enoyl-piperazin-1-y]-6-fluoro-7-(2-fluoro-6-hydroxy-phenyl)pyrido[2,3-d]pyrimidin-2-one], for which the IC50 is 0.116 µM in assay [1], above 7.5 µM in assay [2] and 0.134 µM in assay [3].
As for `C=CC(=O)N1C[C@H](C)N(c2nc(=O)n(-c3c(C(C)C)ncnc3C(C)C)c3nc(-c4ccccc4F)c(F)cc23)C[C@H]1C` [Example 101-2, 1-(4,6-Diisopropylpyrimidin-5-yl)-4-[(2S,5R)-2,5-dimethyl-4-prop-2-enoyl-piperazin-1-yl]-6-fluoro-7-(2-fluorophenyl)pyrido [2,3-d]pyrimidin-2-one], the IC50 in assay [1] (Homo sapiens, MIA PaCa-2, 2 h) is 0.116 µM; in assay [2] (Homo sapiens, A549, 2 h) it was above 7.5 µM; in assay [3], 0.16 µM.
Consider `C=CC(=O)N1C[C@@H](C)N(c2nc(=O)n(-c3c(C(C)C)ncnc3C(C)C)c3nc(-c4ccccc4F)c(F)cc23)[C@@H](C)C1` [Example 101-3, 1-(4,6-Diisopropylpyrimidin-5-yl)-4-[(2R,6S)-2,6-dimethyl-4-prop-2-enoyl-piperazin-1-yl]-6-fluoro-7-(2-fluorophenyl)pyrido [2,3-d]pyrimidin-2-one], for which the IC50 was 0.208 µM in assay [1] (Homo sapiens, MIA PaCa-2, 2 h); above 7.5 µM in assay [2] (Homo sapiens, A549, 2 h); 0.195 µM in assay [3].
As for `C=CC(=O)N1C[C@H](C)N(c2nc(=O)n(-c3c(Cl)ncnc3C(C)C)c3nc(-c4ccccc4F)c(Cl)cc23)C[C@H]1C` [Example 102-5, 6-Chloro-1-(4-chloro-6-isopropyl-pyrimidin-5-yl)-4-[(2S,5R)-2,5-dimethyl-4-prop-2-enoyl-piperazin-1-yl]-7-(2-fluorophenyl) pyrido[2,3-d]pyrimidin-2-one], the concentration for half-maximal inhibition (IC50) in assay [1] is 0.084 µM; in assay [2] (Homo sapiens, A549, 2 h), above 7.5 µM; in assay [3], 0.071 µM.
`C=CC(=O)N1C[C@H](C)N(c2nc(=O)n(-c3c(Cl)ncnc3C(C)C)c3nc(-c4ccccc4C)c(Cl)cc23)C[C@H]1C` [Example 102-6, 6-Chloro-1-(4-chloro-6-isopropyl-pyrimidin-5-yl)-4-[(2S,5R)-2,5-dimethyl-4-prop-2-enoyl-piperazin-1-yl]-7-(o-tolyl)pyrido[2,3-d]pyrimidin-2-one]: the IC50 in assay [1] (Homo sapiens, MIA PaCa-2, 2 h) is 0.063 µM; in assay [2] (Homo sapiens, A549, 2 h), above 7.5 µM; in assay [3], 0.066 µM.
With `C=CC(=O)N1C[C@H](C)N(c2nc(=O)n(-c3c(N(C)C)ccnc3C(C)C)c3nc(-c4ccccc4C(C)C)c(Cl)cc23)C[C@H]1C` [Example 103-1, 4-((2S,5R)-4-Acryloyl-2,5-dimethylpiperazin-1-yl)-6-chloro-1-(4-(dimethylamino)-2-isopropylpyridin-3-yl)-7-(2-isopropylphenyl)pyrido[2,3-d]pyrimidin-2(1H)-one], the IC50 in assay [1] is 0.107 µM; in assay [2] (Homo sapiens, A549, 2 h), above 7.5 µM; in assay [3] it was 0.105 µM.
With `C=CC(=O)N1C[C@H](C)N(c2nc(=O)n(-c3c(C(C)C)ncn(C)c3=O)c3nc(-c4ccccc4F)c(Cl)cc23)C[C@H]1C` [Example 103-2, 6-Chloro-4-[(2S,5R)-2,5-dimethyl-4-prop-2-enoyl-piperazin-1-yl]-7-(2-fluorophenyl)-1-(4-isopropyl-1-methyl-6-oxo-pyrimidin-5-yl)pyrido[2,3-d]pyrimidin-2-one], the IC50 is 0.04 µM in assay [1] (Homo sapiens, MIA PaCa-2, 2 h); above 7.5 µM in assay [2] (Homo sapiens, A549, 2 h); 0.084 µM in assay [3].
For `C=CC(=O)N1C[C@H](C)N(c2nc(=O)n(-c3c(C(C)C)cccc3[S+](C)[O-])c3nc(-c4ccccc4F)c(Cl)cc23)C[C@H]1C` (stereo partly drawn) [Example 103-3, 4-((2S,5R)-4-acryloyl-2,5-dimethylpiperazin-1-yl)-6-chloro-7-(2-fluorophenyl)-1-(2-isopropyl-6-(methylsulfinyl)phenyl)pyrido[2,3-d]pyrimidin-2(1H)-one], the IC50 in assay [1] (Homo sapiens, MIA PaCa-2, 2 h) is 0.143 µM; in assay [2] (Homo sapiens, A549, 2 h), above 7.5 µM. The “Coupled exchange IC50 (5 min; μM)” value in assay [3] turned out to be 0.677 µM.
With `C=CC(=O)N1C[C@H](C)N(c2nc(=O)n(-c3c(C(C)C)cncc3C(C)C)c3nc(-c4ccccc4F)c(Cl)cc23)C[C@H]1C` [Example 103-4, 6-Chloro-1-(3,5-diisopropyl-4-pyridyl)-4-[(2S,5R)-2,5-dimethyl-4-prop-2-enoyl-piperazin-1-yl]-7-(2-fluorophenyl) pyrido[2,3-d]pyrimidin-2-one], the IC50 in assay [1] (Homo sapiens, MIA PaCa-2, 2 h) is 0.062 µM; in assay [2] (Homo sapiens, A549, 2 h), above 7.5 µM; in assay [3], 0.057 µM.
Regarding `C=CC(=O)N1C[C@H](C)N(c2nc(=O)n(-c3c(N(CC)CC)ccnc3C(C)C)c3nc(-c4ccccc4C(C)C)c(Cl)cc23)C[C@H]1C` [Example 103-5, 6-Chloro-1-[4-(diethylamino)-2-isopropyl-3-pyridyl]-4-[(2S,5R)-2,5-dimethyl-4-prop-2-enoyl-piperazin-1-yl]-7-(2-isopropylphenyl) pyrido[2,3-d]pyrimidin-2-one], the half-inhibitory concentration (IC50) in assay [1] (Homo sapiens, MIA PaCa-2, 2 h) is 0.507 µM; in assay [2] (Homo sapiens, A549, 2 h), above 7.5 µM; in assay [3], 0.2 µM.
For the compound `C=CC(=O)N1C[C@H](C)N(c2nc(=O)n(-c3c(N(CC)CC)ccnc3C(C)C)c3nc(-c4ccccc4C)c(Cl)cc23)C[C@H]1C` [Example 103-6, 6-chloro-1-[4-(diethylamino)-2-isopropyl-3-pyridyl]-4-[(2S,5R)-2,5-dimethyl-4-prop-2-enoyl-piperazin-1-yl]-7-(o-tolyl)pyrido[2,3 d]pyrimidin-2-one], the concentration for half-maximal inhibition (IC50) in assay [1] (Homo sapiens, MIA PaCa-2, 2 h) is 0.474 µM; in assay [2] (Homo sapiens, A549, 2 h) it was above 7.5 µM; in assay [3], 0.08 µM.
For the compound `C=CC(=O)N1C[C@H](C)N(c2nc(=O)n(-c3c(N(C)C)ccnc3C(C)C)c3nc(-c4ccccc4C)c(Cl)cc23)C[C@H]1C` [Example 103-7, 6-Chloro-1-[4-(dimethylamino)-2-isopropyl-3-pvridyl]-4-[(2S,5R)-2,5-dimethyl-4-prop-2-enoyl-piperazin-1-yl]-7-(o-tolyl)pyrido[2,3-d]pyrimidin-2-one], the IC50 stood at 0.128 µM in assay [1]; 3.75 µM in assay [2] (Homo sapiens, A549, 2 h); 0.143 µM in assay [3].
Regarding `C=CC(=O)N1C[C@H](C)N(c2nc(=O)n(-c3c(C(C)C)nc(Br)nc3C(C)C)c3nc(-c4ccccc4F)c(Cl)cc23)C[C@H]1C` [Example 106-1, 4-((2S,5R)-4-Acryloyl-2,5-dimethylpiperazin-1-yl)-1-(2-bromo-4,6-diisopropylpyrimidin-5-yl)-6-chloro-7-(2-fluorophenyl)pyrido[2,3-d]pyrimidin-2(1H)-one], the concentration for half-maximal inhibition (IC50) in assay [1] (Homo sapiens, MIA PaCa-2, 2 h) was 0.096 µM; in assay [2] (Homo sapiens, A549, 2 h), 4.54 µM; in assay [3], 0.08 µM.
In the case of `C=CC(=O)N1CCN(c2nc(=O)n(CC(C)(C)C)c3nc(-c4ccccc4F)c(Cl)cc23)[C@@H](C)C1` [Example 106-2, 6-Chloro-1-(2,2-dimethylpropyl)-7-(2-fluorophenyl)-4-[(2S)-2-methyl-4-prop-2-enoyl-piperazin-1-yl]pyrido[2,3-d]pyrimidin-2-one], the IC50 was 5.31 µM in assay [1] (Homo sapiens, MIA PaCa-2, 2 h); above 7.5 µM in assay [2] (Homo sapiens, A549, 2 h); 1.01 µM in assay [3].
For `C=CC(=O)N1CCN(c2nc(=O)n(CC(C)(C)C)c3nc(-c4ccccc4F)c(Cl)cc23)C[C@@H]1CO` [Example 106-3, 6-Chloro-1-(2,2-dimethylpropyl)-7-(2-fluorophenyl)-4-[(3R)-3-(hydroxymethyl)-4-prop-2-enoyl-piperazin-1-yl]pyrido[2,3-d]pyrimidin-2-one], in that order: 10 µM, above 7.5 µM and 8.34 µM.

The record behind these values is US11285156B2, “Substituted piperazines as KRAS G12C inhibitors” (Amgen Inc., priority 2018, dated 2022).
